Test results as given in PMC7241536, “Design, synthesis and in vitro antiproliferative activity of new thiazolidinedione-1,3,4-oxadiazole hybrids as thymidylate synthase inhibitors” (Journal of Enzyme Inhibition and Medicinal Chemistry, 2020).
Where two headings read alike, the source gives them in different places.

Key:
MCF-7 (breast cancer) = assay: MTT cytotoxicity assay, MCF-7; assay type: cell-based, human; conditions: for IC50: MTT, 72 h, breast cancer cell line MCF-7, read-out: IC50 against MCF-7; for folds activity of 5-FU against MCF-7: relative to 5-fluorouracil
Experimental: (§1) The methods are provided in Supplementary material.
(§2) The newly synthesised compounds 7–21 were tested for their cytotoxicity against human cancer cell line viz. breast and colorectal using MTT assay.
(§3) Two human cancer cell lines, MCF-7 and HCT-116 were cultured in Dulbecco’s Modified Eagles Medium (DMEM) high glucose medium which was supplemented with 10% fetal bovine serum (FBS), 10,000 units/mL penicillin/streptomycin (Pen/Strep) and 1% glutamine). The above cell lines were cultured in 75 cm2 flasks and maintained at 37 °C in an incubator humidified with 5% CO2. The cell culture was performed using aseptic techniques in a Class II […]
(§4) Breast MCF-7 and colorectal HCT-116 cancer cells were added at (1 × 10^5 cells/mL) into a 96 well plate with three replicates and incubated overnight for attachment at 37°C, in 5% CO2 humidified atmosphere. Drug concentrations at 6 serial dilutions (100, 50, 10, 1, 0.5 and 0.1 μM) were added in triplicates and incubated at 37°C, 5% CO2 for 72 h. Drugs were dissolved in 0.1 % DMSO as a vehicle. Untreated cells were used as control. 5-fluorouracil (5-FU) was used as a positive control. Thereafter, each well for each time point was removed and replaced with […] of full medium containing 10% of 3-(4,5- dimethylthiaxolyl-2)-2,5-diphenyltetrazoliumbromide (MTT) (10 mg/mL). Media was removed and 100µl of DMSO was added and cells were incubated for further 5 mins at 37 °C and 5% CO2. Plates were quantified using the SpectraMax M3 plate reader at 570 nm. The percentage inhibition was calculated as 100–[(Mean OD of treated cell × 100)/Mean OD of vehicle treated cells (DMSO)]. All the experiments were repeated at least three independent experiments. […]

[1] = test system: HCT-116 (colorectal cancer); assay: MTT cytotoxicity assay, HCT-116; assay type: cell-based, human; conditions: for IC50: MTT, 72 h, colorectal cancer cell line HCT-116, read-out: IC50 against HCT-116; for folds cytotoxicity compared to 5-FU against HCT-116: relative to 5-fluorouracil
Experimental: as §1, §2, §3, §4

[2] = biological target: thymidylate synthase (TS) (Homo sapiens, UniProt P04818); assay: In vitro thymidylate synthase assay (spectrophotometric, 340 nm); assay type: biochemical
Sequence of thymidylate synthase (TS) (P04818 whole entry): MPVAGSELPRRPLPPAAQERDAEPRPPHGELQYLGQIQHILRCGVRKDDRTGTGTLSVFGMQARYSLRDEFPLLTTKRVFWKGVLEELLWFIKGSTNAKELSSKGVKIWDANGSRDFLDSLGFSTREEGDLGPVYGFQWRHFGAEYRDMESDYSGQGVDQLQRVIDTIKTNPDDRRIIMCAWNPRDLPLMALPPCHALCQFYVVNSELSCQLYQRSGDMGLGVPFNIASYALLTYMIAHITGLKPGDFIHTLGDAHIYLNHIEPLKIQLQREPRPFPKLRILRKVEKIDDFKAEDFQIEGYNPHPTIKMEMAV
Experimental: TS activity was performed according to the method as described by Wahab and Friedkin[27] with a slight modification according to Santi.[28] (Refer to Supplementary material for the method.) […]
In vitro Thymidylate synthase assay
It involves a mixture containing 2-mercaptoethanol (0.1 M), (6R,S)-tetrahydrofolate (0.0003 M), formaldehyde (0.012 M), MgCl2 (0.02 M), dUMP (0.001 M), TrisHCl (0.04 M), and NaEDTA […]
(0.00075 M). This assay was done spectrophotometrically at 30° C and pH 7.4. The reaction was initiated by the addition of an amount of enzyme giving a change in absorbance at 340 nm of 0.016/min in the absence of inhibitor. The percent inhibition was determined at a minimum of four inhibitor concentrations within 20% of the 50% point. The standard deviations for […]

[3] = 30 °C, pH 7.4, read-out: TS inhibition IC50

SMILES | IC50 (MCF-7 (breast cancer); Homo sapiens, MCF7, 72 h) [µM] | IC50 ([1]; Homo sapiens, HCT-116, 72 h) [µM] | melting point [°C] | further results
COc1ccc(/C=C2\SC(=O)N(Cc3nnc(-c4ccccc4Cl)o3)C2=O)cc1 [Compound 9, (Z)-5-(4-methoxybenzylidene)-3-((5-(2-chlorophenyl)-1,3,4-oxadiazol-2-yl)methyl)thiazolidine-2,4-dione] | 7.47 | 12.8 | 276 to 277 | IC50 (MCF-7 (breast cancer)): 7.74 µM; folds activity of 5-FU against MCF-7 (MCF-7 (breast cancer)): 4.5 folds; folds cytotoxicity compared to 5-FU against HCT-116 [1]: 3.1 folds; IC50 [2, 3]: 1.67 µM
COc1ccc(/C=C2\SC(=O)N(Cc3nnc(COc4cccc5ccccc45)o3)C2=O)cc1 [Compound 19, (Z)-5-(4-methoxybenzylidene)-3-((5-((naphthalen-1-yloxy)methyl)-1,3,4-oxadiazol-2-yl)methyl) thiazolidine-2,4-dione] | 61.6 | 69.5 | 220 to 221 | –
COc1ccc(/C=C2\SC(=O)N(Cc3nnc(COc4ccc5ccccc5c4)o3)C2=O)cc1 [Compound 20, (Z)-5-(4-methoxybenzylidene)-3-((5-((naphthalen-3-yloxy)methyl)-1,3,4-oxadiazol-2-yl)methyl) thiazolidine-2,4-dione] | > 100 | > 100 | 210 to 211 | –
Nc1nc2[nH]cc(CCc3ccc(C(=O)N[C@@H](CCC(=O)O)C(=O)O)cc3)c2c(=O)[nH]1 [PTX, Pemetrexed, reference compound] | – | – | – | IC50 [2]: 8.2 µM
COc1ccc(/C=C2\SC(=O)N(Cc3nnc(COc4cccc(Cl)c4Cl)o3)C2=O)cc1 [Compound 18, (Z)-3-((5-((2,3-dichlorophenoxy)methyl)-1,3,4-oxadiazol-2-yl)methyl)-5-(4-methoxybenzylidene)thiazolidine-2,4-dione] | > 100 | > 100 | 209 to 210 | –
COc1ccc(/C=C2\SC(=O)N(Cc3nnc(COc4ccccc4)o3)C2=O)cc1 [Compound 16, (Z)-5-(4-methoxybenzylidene)-3-((5-(phenoxymethyl)-1,3,4-oxadiazol-2-yl)methyl)thiazolidine-2,4-dione] | 58.4 | 67.1 | 152 to 153 | –
COc1ccc(/C=C2\SC(=O)N(Cc3nnc(-c4ccccc4)o3)C2=O)cc1 [Compound 7, (Z)-5-(4-methoxybenzylidene)-3-((5-phenyl-1,3,4-oxadiazol-2-yl)methyl)thiazolidine-2,4-dione] | 53.5 | 57.3 | – | –
COc1ccc(/C=C2\SC(=O)N(Cc3nnc(COc4cccc(Cl)c4)o3)C2=O)cc1 [Compound 17, (Z)-3-((5-((3-chlorophenoxy)methyl)-1,3,4-oxadiazol-2-yl)methyl)-5-(4-methoxybenzylidene)thiazolidine-2,4-dione] | 65.2 | 55.5 | 142 to 143 | –
COc1ccc(/C=C2\SC(=O)N(Cc3nnc(-c4ccc(Br)cc4)o3)C2=O)cc1 [Compound 10, (Z)-5-(4-methoxybenzylidene)-3-((5-(4-bromophenyl)-1,3,4-oxadiazol-2-yl)methyl)thiazolidine-2,4-dione] | 7.87 | 16.1 | – | folds activity of 5-FU against MCF-7 (MCF-7 (breast cancer)): 4.4 folds; folds cytotoxicity compared to 5-FU against HCT-116 [1]: 2.5 folds; IC50 [2, 3]: 2.21 µM
COc1ccc(/C=C2\SC(=O)N(Cc3nnc(-c4ccc(C)cc4)o3)C2=O)cc1 [Compound 11, (Z)-5-(4-methoxybenzylidene)-3-((5-p-tolyl-1,3,4-oxadiazol-2-yl)methyl)thiazolidine-2,4-dione] | 58.4 | 68.1 | 197 to 198 | –
COc1ccc(/C=C2\SC(=O)N(Cc3nnc(-c4ccccc4C)o3)C2=O)cc1 [Compound 13, (Z)-5-(4-methoxybenzylidene)-3-((5-o-tolyl-1,3,4-oxadiazol-2-yl)methyl)thiazolidine-2,4-dione] | 56.3 | 58.6 | – | –
COc1ccc(/C=C2\SC(=O)N(Cc3nnc(COc4cccc5cccnc45)o3)C2=O)cc1 [Compound 21, (Z)-5-(4-methoxybenzylidene)-3-((5-((quinolin-8-yloxy)methyl)-1,3,4-oxadiazol-2-yl)methyl) thiazolidine-2,4-dione] | 62 | 63.1 | 161 to 162 | –
COc1ccc(/C=C2\SC(=O)N(Cc3nnc(-c4ccccc4O)o3)C2=O)cc1 [Compound 12, (Z)-5-(4-methoxybenzylidene)-3-((5-(2-hydroxyphenyl)-1,3,4-oxadiazol-2-yl)methyl)thiazol idine-2,4-dione] | 56.3 | 58.6 | – | –
O=c1[nH]cc(F)c(=O)[nH]1 [Compound 5-FU, 5-fluorouracil, reference compound] | 34.8 | 40.5 | – | –
COc1ccc(/C=C2\SC(=O)N(Cc3nnc(-c4cccc([N+](=O)[O-])c4)o3)C2=O)cc1 [Compound 14, (Z)-5-(4-methoxybenzylidene)-3-((5-(3-nitrophenyl)-1,3,4-oxadiazol-2-yl)methyl)thiazolidine-2,4-dione] | 43.4 | 42.2 | – | IC50 [1]: 42.2 µM; IC50 [2, 3]: 9.4 µM
COc1ccc(/C=C2\SC(=O)N(Cc3nnc(-c4cccc(Cl)c4)o3)C2=O)cc1 [Compound 8, (Z)-5-(4-methoxybenzylidene)-3-((5-(3-chlorophenyl)-1,3,4-oxadiazol-2-yl)methyl)thiazolidine-2,4-dione] | 56 | 56.8 | – | –
COc1ccc(/C=C2\SC(=O)N(Cc3nnc(-c4cccc(C)c4)o3)C2=O)cc1 [Compound 15, (Z)-5-(4-methoxybenzylidene)-3-((5-m-tolyl-1,3,4-oxadiazol-2-yl)methyl)thiazolidine-2,4-dione] | 47.8 | 39.6 | – | IC50 [2, 3]: 7.9 µM
